Assay results published in PubChem BioAssay AID2060501 (Molecular Pharmacology Branch, DTP, NCI, 2025).
pIC50: −log10 of the molar value.

Tested on: 282377-053-R-J1-PDC complex spheroids, viability
Assay: Anticancer human tumor 282377-053-R-J1-PDC patient-derived colon adenocarcinoma cell line growth inhibition [GQUAD]
Details: for pIC50: curve of first compound; for viability, T/C: stronger effect = lower value
In short: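 Multi-cell-type spheroids of tumor cells with HUVEC and mesenchymal stem cells, treated with drug combinations. Concentrations descend in half-log steps from near clinical Cmax, or from 10 microM where Cmax is unknown; viability read-out.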

[1] = second compound 0.0316 µM, first compound 0.0316 µM
[2] = second compound 0.0316 µM, first compound 0.1 µM
[3] = second compound 0.0316 µM, first compound 0.316 µM
[4] = second compound 0.0316 µM, first compound 1 µM
[5] = second compound 0.0316 µM, first compound 3.16 µM
[6] = second compound 0.0316 µM, first compound 10 µM
[7] = second compound 0.1 µM, first compound 0.0316 µM
[8] = second compound 0.1 µM, first compound 0.1 µM
[9] = second compound 0.1 µM, first compound 0.316 µM
[10] = second compound 0.1 µM, first compound 1 µM
[11] = second compound 0.1 µM, first compound 3.16 µM
[12] = second compound 0.1 µM, first compound 10 µM
[13] = second compound 0.316 µM, first compound 0.0316 µM
[14] = second compound 0.316 µM, first compound 0.1 µM
[15] = second compound 0.316 µM, first compound 0.316 µM
[16] = second compound 0.316 µM, first compound 1 µM
[17] = second compound 0.316 µM, first compound 3.16 µM
[18] = second compound 0.316 µM, first compound 10 µM
[19] = second compound 1 µM, first compound 0.0316 µM
[20] = second compound 1 µM, first compound 0.1 µM
[21] = second compound 1 µM, first compound 0.316 µM
[22] = second compound 1 µM, first compound 1 µM
[23] = second compound 1 µM, first compound 3.16 µM
[24] = second compound 1 µM, first compound 10 µM
[25] = second compound 3.16 µM, first compound 0.0316 µM
[26] = second compound 3.16 µM, first compound 0.1 µM
[27] = second compound 3.16 µM, first compound 0.316 µM
[28] = second compound 3.16 µM, first compound 1 µM
[29] = second compound 3.16 µM, first compound 3.16 µM
[30] = second compound 3.16 µM, first compound 10 µM
[31] = second compound 10 µM, first compound 0.0316 µM
[32] = second compound 10 µM, first compound 0.1 µM
[33] = second compound 10 µM, first compound 0.316 µM
[34] = second compound 10 µM, first compound 1 µM
[35] = second compound 10 µM, first compound 3.16 µM
[36] = second compound 10 µM, first compound 10 µM
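Further: spheroids exposed to compounds for 7 days before readout.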
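Wherever viability, T/C is given: percent of vehicle DMSO control viability with 100% = untreated-like growth.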

Cc1cccc(N(C)C(=O)C2C(O)CCN2c2nc(C)cc(C(F)(F)F)c2C#N)c1 (stereo unspecified) + Cc1cnc(CNC(=O)c2c(=O)c3ccc(N4CCCN(C)CC4)nc3n3c2sc2ccccc23)cn1 gave a pIC50 (second compound 0.0316 µM) of less than 5.00, a pIC50 (second compound 0.1 µM) of less than 5.00 and a pIC50 (second compound 0.316 µM) of less than 5.00. The pIC50 (second compound 1 µM) was less than 5.00, the pIC50 (second compound 3.16 µM) was less than 5.00 and the pIC50 (second compound 10 µM) was 5.90. It also gave a viability, T/C [1] of 114%, a viability, T/C [2] of 105% and a viability, T/C [3] of 108%. The viability, T/C [4] was 80.3%, the viability, T/C [5] was 95.1% and the viability, T/C [6] was 93.1%. For the same molecule, the viability, T/C [7] was 96.1%, the viability, T/C [8] was 99.3% and the viability, T/C [9] was 95.5%. For the same molecule, the viability, T/C [10] was 88%, the viability, T/C [11] was 88.8% and the viability, T/C [12] was 93.6%. The viability, T/C [13] was 95%, the viability, T/C [14] was 85.6% and the viability, T/C [15] was 98.8%. The viability, T/C [16] was 77%, the viability, T/C [17] was 93.4% and the viability, T/C [18] was 79.7%. It also gave a viability, T/C [19] of 66.3%, a viability, T/C [20] of 60.6% and a viability, T/C [21] of 64.1%. The viability, T/C [22] was 60.3%, the viability, T/C [23] was 65.9% and the viability, T/C [24] was 67.1%. For the same molecule, the viability, T/C [25] was 54.6%, the viability, T/C [26] was 51% and the viability, T/C [27] was 56.2%. For the same molecule, the viability, T/C [28] was 58.8%, the viability, T/C [29] was 56.6% and the viability, T/C [30] was 58.5%. It also gave a viability, T/C [31] of 50.6%, a viability, T/C [32] of 53.6% and a viability, T/C [33] of 50.6%. For the same molecule, the viability, T/C [34] was 52.2%, the viability, T/C [35] was 46.4% and the viability, T/C [36] was 35.5%.

In the case of COc1ncnc(C2CC2)c1-c1ncc2cnn(Cc3ccc(-c4nc(C(F)(F)F)cn4C(C)C)cc3)c2n1 + Cc1cnc(CNC(=O)c2c(=O)c3ccc(N4CCCN(C)CC4)nc3n3c2sc2ccccc23)cn1, the pIC50 (second compound 0.0316 µM) was less than 5.00, the pIC50 (second compound 0.1 µM) was less than 5.00 and the pIC50 (second compound 0.316 µM) was less than 5.00. For the same molecule, the pIC50 (second compound 1 µM) was less than 5.00, the pIC50 (second compound 3.16 µM) was 6.06 and the pIC50 (second compound 10 µM) was greater than 7.50. It also gave a viability, T/C [1] of 108%, a viability, T/C [2] of 107% and a viability, T/C [3] of 119%. For the same molecule, the viability, T/C [4] was 92.6%, the viability, T/C [5] was 123% and the viability, T/C [6] was 95.3%. It also gave a viability, T/C [7] of 121%, a viability, T/C [8] of 96.2% and a viability, T/C [9] of 94.4%. For the same molecule, the viability, T/C [10] was 100%, the viability, T/C [11] was 125% and the viability, T/C [12] was 93.5%. It also gave a viability, T/C [13] of 105%, a viability, T/C [14] of 78.3% and a viability, T/C [15] of 71.1%. It also gave a viability, T/C [16] of 76.2%, a viability, T/C [17] of 76.5% and a viability, T/C [18] of 82.3%. It also gave a viability, T/C [19] of 60.6%, a viability, T/C [20] of 54.8% and a viability, T/C [21] of 55.8%. The viability, T/C [22] was 52.8%, the viability, T/C [23] was 57.9% and the viability, T/C [24] was 55.9%. It also gave a viability, T/C [25] of 53.3%, a viability, T/C [26] of 49.2% and a viability, T/C [27] of 49.2%. It also gave a viability, T/C [28] of 49.7%, a viability, T/C [29] of 52.8% and a viability, T/C [30] of 47.1%. The viability, T/C [31] was 41.1%, the viability, T/C [32] was 45.2% and the viability, T/C [33] was 46.5%. The viability, T/C [34] was 46.6%, the viability, T/C [35] was 50.3% and the viability, T/C [36] was 35.6%.

For CC(C)(O)C1CCC(Nc2ccc3ncc(-c4cccc(C(F)(F)F)c4)n3n2)CC1 (stereo unspecified) + CN(C)c1ccc(Nc2c3ccc(NC(=O)CCN4CCCC4)cc3nc3cc(NC(=O)CCN4CCCC4)ccc23)cc1, the pIC50 (second compound 0.0316 µM) was 5.74, the pIC50 (second compound 0.1 µM) was 5.67 and the pIC50 (second compound 0.316 µM) was 5.70. For the same molecule, the pIC50 (second compound 1 µM) was 5.76, the pIC50 (second compound 3.16 µM) was 5.78 and the pIC50 (second compound 10 µM) was 5.84. The viability, T/C [1] was 121%, the viability, T/C [2] was 100% and the viability, T/C [3] was 74%. For the same molecule, the viability, T/C [4] was 76.4%, the viability, T/C [5] was 21% and the viability, T/C [6] was 29%. The viability, T/C [7] was 123%, the viability, T/C [8] was 85% and the viability, T/C [9] was 76.7%. It also gave a viability, T/C [10] of 87.4%, a viability, T/C [11] of 22.7% and a viability, T/C [12] of 39.8%. For the same molecule, the viability, T/C [13] was 106%, the viability, T/C [14] was 86% and the viability, T/C [15] was 64.9%. For the same molecule, the viability, T/C [16] was 86.5%, the viability, T/C [17] was 22.2% and the viability, T/C [18] was 29.8%. The viability, T/C [19] was 94%, the viability, T/C [20] was 75.4% and the viability, T/C [21] was 85.6%. The viability, T/C [22] was 73.1%, the viability, T/C [23] was 19.6% and the viability, T/C [24] was 31.3%. For the same molecule, the viability, T/C [25] was 100%, the viability, T/C [26] was 97.2% and the viability, T/C [27] was 105%. For the same molecule, the viability, T/C [28] was 71%, the viability, T/C [29] was 23.4% and the viability, T/C [30] was 21.8%. The viability, T/C [31] was 97.3%, the viability, T/C [32] was 95.5% and the viability, T/C [33] was 83.2%. It also gave a viability, T/C [34] of 64.7%, a viability, T/C [35] of 18.3% and a viability, T/C [36] of 19.1%.
